Results published in US7816566B2, “p-Menthan-3-ol alkylated derivatives and their use as refreshing agents” (Robertet S.A., priority 2004, dated 2010).
Read-outs that look alike come from different tables or passages of the source.

Columns and labels:
[1] = organoleptic evaluation of the compounds: refreshing effect, bitterness, odour; type: in vivo; details: sensation of freshness, intensity in words
[2] = refreshing effect in a mouthwash flavouring composition; type: in vivo; details: approximately 0.2 g per litre of prepared mouthwash
Source text: Approximately 0.2 g of (−)-(1R,3R,4S)-3-hydroxy-p-menthane-3-methanol is used per litre of prepared mouthwash.

[3] = refreshing effect in boiled sweets; type: in vivo; details: 0.2 g per kilogramme of final product
Description: A solution of saccharose (350 g) in water (110 g) is prepared which is boiled at 107° C. 150 g of glucose syrup is added and boiled at 148° C. The flavouring, citric acid and colouring agent are added at a temperature of approximately 120°, and 0.2 g of (−)-(1R,3R,4S)-3-hydroxy-p-menthane-3-methanol is added per kilogramme of final product.

[4] = cited from earlier work; for refreshing effect: prior art
[5] = hydrophilic nature of the compound; type: physicochemical
[6] = prior art; cited from earlier work
[7] = refreshing effect in a tobacco flavouring composition; type: in vivo; details: approximately 0.05 g per kilogram of tobacco
Source text: Approximately 0.05 g of (−)-(1R,3R,4S)-3-hydroxy-p-menthane-3-[…] is used per kilogram of tobacco.

Row | melting point | Compound | refreshing effect [1] | other results
1 |  | CC(C)[C@@H]1CC[C@@H](C)C[C@@]1(O)CC(C)(C)O [compound 6] | reduced intensity | 
2 |  | CC(O)C[C@]1(O)C[C@H](C)CC[C@H]1C(C)C (some centres unmarked) [compound 5] | reduced intensity | 
3 | 84 to 86 °C | CC(C)[C@@H]1CC[C@@H](C)C[C@]1(O)CCO [1b, (−)-(1R,3S,4S)-3-hydroxy-p-menthane-3-ethanol] |  | 
4 | 80 to 82 °C | CC(C)[C@@H]1CC[C@@H](C)C[C@]1(O)CO [2a, (−)-(1R,3R,4S)3-hydroxy-p-menthane-3-methanol] |  | refreshing effect [2]: A refreshing effect is obtained; refreshing effect [3]: A very distinct refreshing effect is obtained
5 | 48 to 50 °C | CC(C)[C@@H]1CC[C@@H](C)C[C@@]1(O)CO [2b, (−)-(1R,3S,4S)-3-hydroxy-p-menthane-3-methanol] |  | 
6 |  | CC(C)[C@@H]1CC[C@@H](C)C[C@@]1(O)C(C)CO (some centres unmarked) [compound 4] | reduced intensity | 
7 |  | CC(C)[C@@H]1CC[C@@H](C)C[C@]1(CO)OCCO [compound 11] | not endowed with a particularly intense refreshing effect | 
8 |  | CC1=C(N2CCCC2)C(=O)OC1 [4-methyl-3-(1-pyrrolidinyl)-2[5H]furanone] |  | refreshing effect [4]: very intense refreshing effect
9 |  | CC(C)[C@@H]1CC[C@@H](C)C[C@]1(O)C(O)CO (stereo partly drawn) [compound 3, (1R,3R,4S)-3-hydroxy-p-menthane-3-(ethane-1,2-diol)] | intense | hydrophilic nature [5]: hydrophilic
10 |  | CC(C)[C@@H]1CC[C@@H](C)C[C@H]1O [l-menthol] |  | burning sensation ([4]; when used at a high concentration): can cause a burning sensation; volatility [6]: too high volatility
11 |  | CNC(=O)C(C)(C(C)C)C(C)C [2-isopropyl-N,2,3-trimethylbutyramide] |  | refreshing effect [4]: very active
12 | 80 to 82 °C | CC(C)[C@@H]1CC[C@@H](C)C[C@@]1(O)CCO [1a, (−)-(1R,3R,4S)-3-hydroxy-p-menthane-3-ethanol] |  | refreshing effect [7]: A refreshing effect is obtained
